Source: patent publication US20220105244A1, “METHODS AND COMPOSITIONS FOR PROTECTION OF BIOPROSTHETIC HEART VALVE TISSUE FROM GLYCATION AND ASSOCIATED PROTEIN INCORPORATION” (The Trustees of Columbia University in the City of New York, priority 2019, published 2022)

Legend:
[1] = system: glutaraldehyde-fixed bovine pericardium (Glut-BP); assay: Uptake of 14C-radiolabeled glyoxal by glut-BP; settings: 6-week pre-incubation at 37° C., 1× (7.2 μmol/mg glut-BP); 24 hours at 37° C. in 50 mM 14C-glyoxal
Protocol: FIG. 9. Bar graph of the quantitation of uptake by glutaraldehyde-fixed bovine pericardium (Glut-BP) of radioactively-labeled glycation precursor after 24 hours of incubation at 37° C. in 50 mM ^14C-radiolabeled glyoxal. Glut-BP was either kept in phosphate-buffered saline solution (PBS) in storage at 4° C. or placed in pre-incubation at 37° C. in PBS, PBS+1×1,5-dihydro-2H-pyrrol-2-one at 7.2 μmol/mg glut-BP, or PBS+1×4-(1-methyl-1H-imidazol-4-yl)butanal at 7.2 μmol/mg glut-BP.
The above interpretations are supported by quantitation of uptake of glycation precursor by glut-BP using carbon-14-radiolabeled glyoxal, which indicates approximately 15% decreases in overall glycation versus by an extreme concentration (50 mM) of glyoxal in glut-BP pre-treated by 6-week incubation at 37° C. in PBS alone or 1×1,5 or 1×4IB, shown in FIG. 9.

[2] = system: glutaraldehyde-fixed bovine pericardium; assay: Maillard browning of anti-glycation pre-treated tissue discs after in vitro glycation; settings: for tissue browning due to aggressive glycation: 6 weeks anti-glycation pretreatment at 37° C. (1,5 at pH 9.0), 1-week 50 mM glyoxal, methylglyoxal or glyoxal+5% human serum albumin
Protocol: A general method flow chart is described below. First, standard 0.6% glutaraldehyde fixation protocol (+/−any additional technology, e.g., anti-calcification). Second, wash protocol in phosphate-buffered saline to remove residual unreacted glutaraldehyde or other compounds. Third, incubation in subject compounds dissolved in, for example, phosphate-buffered saline at 37° C. for 6 weeks. Fourth, wash protocol in phosphate-buffered saline to remove residual unreacted anti-glycation precursor. Fifth, storage (usually in 0.2% glutaraldehyde.
(§1) Anti-glycation pretreatments have been performed for 1-, 2-, 4-, and 6-week-long durations for both 1,5-dihydro-2H-pyrrol-2-one as well as 4-(1-methyl-1H-imidazol-4-yl)butanal, and diversified 1-week glycation reactions have been applied to these samples. Namely, these conditions are 50 mM glyoxal, 50 mM methylglyoxal, and 50 mM glyoxal+5% human serum albumin. An antibody for N-carboxyethyl lysine, a major product of methylglyoxal glycation, was utilized for immunohistochemical staining.
“Maillard browning” is a classic and straightforward visual indicator of glycation. Formation of glycation products causes brown hues to develop in glycated tissues and proteinaceous materials. As a preliminary endpoint for initial anti-glycation efficacy studies, the inventors sought to evaluate prevention of browning due to glycation in glutaraldehyde-fixed bovine pericardium, the most common bioprosthetic heart valve biomaterial (and also widely used in other bioprosthetic implants), by pretreatment with the designed anti-glycation compounds. Short term (3-day) and long-term (6-week) protective incubation durations at physiological temperature (37° C.) were chosen as a starting point. Anti-glycation was followed by extensive washing of tissue in phosphate-buffered saline (PBS) to remove any unreacted anti-glycation precursor and extreme glycation conditions (1-week incubation in 50 mM doses of either methylglyoxal or glyoxal, two of the most reactive physiologically-relevant glycation precursors, or 50 mM glyoxal+5% human serum albumin, which exacerbates browning). Treatments and evaluation of browning have been performed with 1,5-dihydro-2H-pyrrol-2-one (“1,5,” compound 3) and 4-(1H-Imidazol-4-yl)butanal (“4IB”).

[3] = system: N-carboxyethyl lysine (CEL); assay: Immunohistochemistry with antibody for N-carboxyethyl lysine after methylglyoxal glycation; parameters: species or system bovine; settings: anti-glycated vs untreated tissue
Protocol: as §1

[4] = system: N-carboxymethyl lysine (CML); assay: Immunohistochemistry with anti-CML antibody after glyoxal glycation; parameters: species or system bovine
Protocol: As a preliminary specific chemical analysis, immunohistochemistry was performed using a standard anti-CML (AbCAM #ab27684 @ 1:5000 dilution) antibody to probe for the best-studied glycation product, N-carboxymethyl lysine, after control or anti-glycated glutaraldehyde-fixed bovine pericardium tissue discs were glycated under aggressive conditions known to efficiently generate CML (one week incubation at 37° C. in 50 mM glyoxal). Brown staining indicates presence of CML.

Compound	decrease in overall glycation (uptake of 14C-glyoxal) [1]	tissue browning due to aggressive glycation [2]	CEL formation in response to methylglyoxal [3]	protection against optical browning ([2]; 50 mM glyoxal, 50 mM methylglyoxal, or 50 mM glyoxal+5% HSA for 7 days at 37° C.)	incorporation of glycated (browned) albumin (tissue color, precursor alone vs precursor plus albumin) ([2]; 6 weeks pretreatment, 50 mM glyoxal+5% human serum albumin)	CML formation in response to glyoxal ([4]; anti-glycated vs untreated tissue)	CML formation ([4]; pretreatment for 6 weeks, one week incubation at 37° C. in 50 mM glyoxal)
O=CCCCc1c[nH]cn1 [Compound 5, 4-(1H-Imidazol-4-yl)butanal]	approximately 15%	Protection from browning is less pronounced	–	–	–	–	–
O=C1C=CCN1 [Compound 3, 1,5-dihydro-2H-pyrrol-2-one]	approximately 15%	dramatic diminishment of tissue browning	still formed similarly as in untreated tissue	dramatic protection	effectively blocks incorporation of glycated (browned) albumin	still formed similarly as in untreated tissue	not mitigated
